Source: publication PMC9592857, “Voltage dependence of the cannabinoid CB1 receptor” (Frontiers in Pharmacology, 2022)
Read-outs that look alike come from different tables or passages of the source.

Assays:
Format in all cases: cell-based
CB1 receptor [1] = target: T1, CB1 receptor (Homo sapiens, UniProt P21554)
T1 construct: expressed in transfected cells; host or cells: Xenopus laevis oocytes injected with cRNA; plasmid was a gift of Ken Mackie

CB1 receptor [2] = target: T1, CB1 receptor; conditions: for mean time constant of deactivation: same oocyte at both potentials, 10 oocytes
GIRK channel = target: T2, GIRK channel (Homo sapiens, UniProt P48051+P48549); assay: Receptor-independent effect on GIRK channels in oocytes expressing the GIRK channel but not the CB1 receptor; conditions: for effect of application on GIRK currents: 10 µM, oocyte expressing the GIRK channel only; for direct effect on the GIRK channel: oocytes without CB1 receptor, any membrane potential
T2 construct: expressed in transfected cells; host or cells: Xenopus laevis oocytes injected with cRNA
T2 sequence (P48549 1-501): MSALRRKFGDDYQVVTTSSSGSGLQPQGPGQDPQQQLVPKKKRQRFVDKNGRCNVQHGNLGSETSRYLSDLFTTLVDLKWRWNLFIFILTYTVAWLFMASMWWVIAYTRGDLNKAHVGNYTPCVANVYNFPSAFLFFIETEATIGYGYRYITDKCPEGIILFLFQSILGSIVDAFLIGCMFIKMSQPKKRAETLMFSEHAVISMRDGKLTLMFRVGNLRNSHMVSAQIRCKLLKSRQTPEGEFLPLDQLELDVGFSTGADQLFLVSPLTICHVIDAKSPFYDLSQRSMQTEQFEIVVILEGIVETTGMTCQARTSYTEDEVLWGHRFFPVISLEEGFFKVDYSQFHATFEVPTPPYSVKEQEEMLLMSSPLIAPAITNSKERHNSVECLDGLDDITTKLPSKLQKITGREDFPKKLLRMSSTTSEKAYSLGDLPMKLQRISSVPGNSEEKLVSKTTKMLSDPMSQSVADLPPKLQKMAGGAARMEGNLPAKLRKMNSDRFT
T2 sequence (P48051 1-423): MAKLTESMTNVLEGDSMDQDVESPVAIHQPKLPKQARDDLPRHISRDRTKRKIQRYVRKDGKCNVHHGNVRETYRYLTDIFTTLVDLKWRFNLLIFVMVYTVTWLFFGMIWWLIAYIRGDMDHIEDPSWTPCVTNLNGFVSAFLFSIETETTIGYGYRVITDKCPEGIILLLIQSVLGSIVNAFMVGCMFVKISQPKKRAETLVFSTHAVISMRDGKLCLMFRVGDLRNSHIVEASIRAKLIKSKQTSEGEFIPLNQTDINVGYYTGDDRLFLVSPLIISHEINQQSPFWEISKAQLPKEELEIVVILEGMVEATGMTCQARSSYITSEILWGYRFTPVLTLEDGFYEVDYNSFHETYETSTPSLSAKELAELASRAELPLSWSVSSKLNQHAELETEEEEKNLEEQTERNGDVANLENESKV
Description: Figure S1. […] (A) A representative recording from an oocyte expressing the GIRK channel. […] (B) Current -Voltage (I-V) curve of IK before (black) and after (red) the application of 2-AG. The oocytes were voltage clamped to -80 mV and the currents after depolarizing pulses to various holding potentials from –80 mV to +40 mV at 10 mV increments were measured. Data is mean ± SEM from 7 oocytes. The difference between the two conditions is not significant (paired t-test, p>0.11 for all voltages).
(§1) Figure S2. Effect of AEA on GIRK channels. (A) A representative recording from an oocyte expressing the GIRK channel. […] (B) Current-voltage I-V curve of IK before (black) and after (red) the application of AEA. The oocytes were voltage clamped to -80 mV and the currents after depolarizing pulses to various holding potentials from –80 mV to +40 mV at 10 mV increments were measured. Data is mean ± SEM from 7 oocytes. The difference between the two conditions is not significant (paired t-test, p>0.13 for all voltages).
as §1, with “S3.” for “S2.”, “THC” for “AEA”, “(B)” for “(B) Current-voltage”, “THC.” for “AEA.”, “5” for “7”, “p>0.23” for “p>0.13”

T1 sequence (P21554 whole entry): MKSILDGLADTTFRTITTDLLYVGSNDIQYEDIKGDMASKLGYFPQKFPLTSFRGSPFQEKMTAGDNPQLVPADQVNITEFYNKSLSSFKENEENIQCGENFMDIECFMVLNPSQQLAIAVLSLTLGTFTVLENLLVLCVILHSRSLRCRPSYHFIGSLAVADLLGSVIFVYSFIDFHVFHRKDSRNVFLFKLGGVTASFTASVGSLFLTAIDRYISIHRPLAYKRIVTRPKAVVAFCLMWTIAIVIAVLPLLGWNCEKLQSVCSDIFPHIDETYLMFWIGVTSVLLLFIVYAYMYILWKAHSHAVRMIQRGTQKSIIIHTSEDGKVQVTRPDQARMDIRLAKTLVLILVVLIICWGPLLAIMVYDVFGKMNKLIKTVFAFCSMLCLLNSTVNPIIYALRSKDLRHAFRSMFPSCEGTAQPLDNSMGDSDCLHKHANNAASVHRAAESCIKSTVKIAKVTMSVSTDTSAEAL

| Molecule | enhancement of potency toward the CB1 receptor by depolarization (CB1 receptor [1]; +40 mV versus -80 mV) | V50 (the voltage that shows half-maximal effect), Boltzmann fit (CB1 receptor [1]; relative activation by 100 nM agonist, -80 mV to +40 mV) | mean time constant of deactivation (CB1 receptor [2]; +40 mV) | dissociation time constant from the receptor (decay of GIRK current after washout) (CB1 receptor [2]; -80 mV, both agonists in the same oocytes, n = 20, mean±SD) | mean time constant of deactivation (CB1 receptor [2]; -80 mV) | effect of application on GIRK currents (GIRK channel) | direct effect on the GIRK channel (GIRK channel) |
| --- | --- | --- | --- | --- | --- | --- | --- |
| CCCCC/C=C\C/C=C\C/C=C\C/C=C\CCCC(=O)OC(CO)CO [2-AG, 2-Arachidonoylglycerol] | about 4 fold | −45 mV | 42.6 ± 19.8 | 30.4 ± 11.7 s | 25.4 ± 14.9 | did not evoke GIRK currents or inhibited basal GIRK currents | do not have any direct effect |
| CCCCC/C=C\C/C=C\C/C=C\C/C=C\CCCC(=O)NCCO [AEA, anandamide] | – | – | – | – | – | did not evoke GIRK currents or inhibited basal GIRK currents | do not have any direct effect |
| (-)-Δ9-Tetrahydrocannabinol [THC] | – | – | – | – | – | did not evoke GIRK currents or inhibited basal GIRK currents | do not have any direct effect |
